# From ChEMBL document CHEMBL5291721, “A preclinical secondary pharmacology resource illuminates target-adverse drug reaction associations of marketed drugs” (Nat Commun, 2023)
# Assays:
# [1] = molecular target: T1, Alpha-2C adrenergic receptor (Homo sapiens, UniProt P18825); type: functional
# T1 sequence (P18825 whole entry): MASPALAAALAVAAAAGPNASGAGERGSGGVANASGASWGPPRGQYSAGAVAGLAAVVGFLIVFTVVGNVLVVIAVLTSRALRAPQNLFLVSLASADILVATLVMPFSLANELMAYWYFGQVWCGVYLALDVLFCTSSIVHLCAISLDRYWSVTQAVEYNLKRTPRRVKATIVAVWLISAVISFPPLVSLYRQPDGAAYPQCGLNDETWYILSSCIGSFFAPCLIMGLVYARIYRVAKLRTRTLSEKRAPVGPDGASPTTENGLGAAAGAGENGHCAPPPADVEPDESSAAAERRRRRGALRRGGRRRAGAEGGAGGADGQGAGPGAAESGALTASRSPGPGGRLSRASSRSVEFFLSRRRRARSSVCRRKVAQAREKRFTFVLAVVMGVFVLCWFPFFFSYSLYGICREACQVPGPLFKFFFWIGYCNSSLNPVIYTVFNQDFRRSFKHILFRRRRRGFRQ
# [2] = molecular target: T2, Muscarinic acetylcholine receptor M2 (Homo sapiens, UniProt P08172); type: functional, cell-based
# T2 sequence (P08172 whole entry): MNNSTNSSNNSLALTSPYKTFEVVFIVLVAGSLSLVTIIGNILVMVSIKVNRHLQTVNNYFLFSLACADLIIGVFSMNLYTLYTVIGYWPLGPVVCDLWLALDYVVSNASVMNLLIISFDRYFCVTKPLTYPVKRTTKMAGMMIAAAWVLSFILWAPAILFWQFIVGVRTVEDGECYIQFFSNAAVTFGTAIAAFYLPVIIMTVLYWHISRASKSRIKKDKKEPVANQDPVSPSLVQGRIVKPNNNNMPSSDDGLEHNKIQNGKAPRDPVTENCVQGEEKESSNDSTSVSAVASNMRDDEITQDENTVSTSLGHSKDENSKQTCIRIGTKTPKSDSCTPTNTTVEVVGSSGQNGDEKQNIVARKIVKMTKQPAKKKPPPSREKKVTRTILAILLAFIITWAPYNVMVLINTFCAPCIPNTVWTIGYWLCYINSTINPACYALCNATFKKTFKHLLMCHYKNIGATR
# [3] = molecular target: Muscarinic acetylcholine receptor M3 (Homo sapiens, UniProt P20309)
# D(1A) dopamine receptor = D(1A) dopamine receptor (Homo sapiens, UniProt P21728); type: functional, cell-based
# [4] = molecular target: 5-hydroxytryptamine receptor 2A (Homo sapiens, UniProt P28223); type: functional, cell-based
# [5] = molecular target: T3, 5-hydroxytryptamine receptor 2C (Homo sapiens, UniProt P28335)
# T3 sequence (P28335 whole entry): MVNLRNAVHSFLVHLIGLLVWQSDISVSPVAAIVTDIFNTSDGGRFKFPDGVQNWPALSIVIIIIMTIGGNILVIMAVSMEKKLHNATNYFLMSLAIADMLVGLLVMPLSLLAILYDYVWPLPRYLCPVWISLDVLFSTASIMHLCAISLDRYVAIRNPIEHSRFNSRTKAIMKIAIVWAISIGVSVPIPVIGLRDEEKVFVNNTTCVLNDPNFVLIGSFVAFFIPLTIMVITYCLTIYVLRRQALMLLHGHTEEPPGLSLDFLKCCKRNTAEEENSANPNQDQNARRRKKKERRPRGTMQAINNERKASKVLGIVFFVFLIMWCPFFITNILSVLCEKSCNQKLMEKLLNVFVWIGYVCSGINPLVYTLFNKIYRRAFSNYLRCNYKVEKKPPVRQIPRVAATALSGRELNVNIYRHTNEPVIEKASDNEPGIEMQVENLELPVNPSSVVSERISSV
# [6] = molecular target: T4, Neuropeptide Y receptor type 1 (Homo sapiens, UniProt P25929)
# T4 sequence (P25929 whole entry): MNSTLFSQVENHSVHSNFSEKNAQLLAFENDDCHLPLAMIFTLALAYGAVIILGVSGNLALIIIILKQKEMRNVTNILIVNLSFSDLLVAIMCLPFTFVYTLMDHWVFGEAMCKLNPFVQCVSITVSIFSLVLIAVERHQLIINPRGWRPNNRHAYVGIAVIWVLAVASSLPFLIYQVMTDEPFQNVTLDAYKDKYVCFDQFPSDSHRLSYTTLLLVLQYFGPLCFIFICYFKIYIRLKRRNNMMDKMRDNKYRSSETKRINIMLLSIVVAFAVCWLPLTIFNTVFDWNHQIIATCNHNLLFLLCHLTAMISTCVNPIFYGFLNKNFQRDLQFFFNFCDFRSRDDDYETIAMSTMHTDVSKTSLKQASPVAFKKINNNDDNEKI
# Mu-type opioid receptor = Mu-type opioid receptor (Homo sapiens, UniProt P35372); assay: biochemical; type: functional
# Progesterone receptor = molecular target: T5, Progesterone receptor (Homo sapiens, UniProt P06401); type: functional
# T5 sequence (P06401 whole entry): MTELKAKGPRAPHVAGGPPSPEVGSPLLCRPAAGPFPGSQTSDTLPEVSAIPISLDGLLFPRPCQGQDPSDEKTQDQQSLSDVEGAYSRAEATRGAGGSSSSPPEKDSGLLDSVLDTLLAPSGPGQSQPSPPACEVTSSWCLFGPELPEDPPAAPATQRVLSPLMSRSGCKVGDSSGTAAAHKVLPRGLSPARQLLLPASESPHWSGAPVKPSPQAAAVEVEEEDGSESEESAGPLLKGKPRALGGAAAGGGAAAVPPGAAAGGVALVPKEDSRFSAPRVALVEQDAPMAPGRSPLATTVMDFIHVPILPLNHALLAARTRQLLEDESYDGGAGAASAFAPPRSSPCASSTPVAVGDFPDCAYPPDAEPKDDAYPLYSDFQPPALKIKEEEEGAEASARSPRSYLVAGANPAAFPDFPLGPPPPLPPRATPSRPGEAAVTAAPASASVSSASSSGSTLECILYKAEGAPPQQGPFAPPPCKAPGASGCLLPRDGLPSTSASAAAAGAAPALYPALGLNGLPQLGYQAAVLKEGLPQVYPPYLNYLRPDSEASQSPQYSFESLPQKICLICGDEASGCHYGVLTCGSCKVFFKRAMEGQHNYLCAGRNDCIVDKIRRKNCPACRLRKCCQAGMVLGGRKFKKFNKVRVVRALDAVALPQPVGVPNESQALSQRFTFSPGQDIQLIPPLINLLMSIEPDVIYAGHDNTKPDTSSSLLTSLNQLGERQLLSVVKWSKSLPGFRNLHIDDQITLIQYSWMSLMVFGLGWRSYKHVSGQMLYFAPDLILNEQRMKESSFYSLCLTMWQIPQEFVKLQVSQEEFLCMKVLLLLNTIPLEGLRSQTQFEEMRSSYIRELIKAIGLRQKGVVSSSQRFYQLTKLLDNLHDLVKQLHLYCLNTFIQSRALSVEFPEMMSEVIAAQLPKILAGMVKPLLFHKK
# Note: assay procedure not described here.
# Chain of Muscarinic acetylcholine receptor M3 (P20309 whole entry): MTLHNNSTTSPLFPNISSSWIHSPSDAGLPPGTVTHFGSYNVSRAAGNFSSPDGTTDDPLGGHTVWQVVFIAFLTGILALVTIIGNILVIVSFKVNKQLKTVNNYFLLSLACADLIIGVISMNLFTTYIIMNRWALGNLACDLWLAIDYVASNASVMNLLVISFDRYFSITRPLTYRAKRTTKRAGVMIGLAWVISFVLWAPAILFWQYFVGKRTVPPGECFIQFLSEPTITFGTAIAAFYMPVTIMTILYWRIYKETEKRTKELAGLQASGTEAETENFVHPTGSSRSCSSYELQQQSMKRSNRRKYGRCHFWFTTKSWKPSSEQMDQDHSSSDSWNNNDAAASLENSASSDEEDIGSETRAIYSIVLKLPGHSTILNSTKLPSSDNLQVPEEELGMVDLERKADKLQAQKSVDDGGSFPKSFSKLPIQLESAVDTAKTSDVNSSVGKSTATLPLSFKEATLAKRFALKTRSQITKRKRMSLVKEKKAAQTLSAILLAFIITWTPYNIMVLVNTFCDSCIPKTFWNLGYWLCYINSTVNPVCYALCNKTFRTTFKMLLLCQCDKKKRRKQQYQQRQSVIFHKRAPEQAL
# Chain of D(1A) dopamine receptor (P21728 whole entry): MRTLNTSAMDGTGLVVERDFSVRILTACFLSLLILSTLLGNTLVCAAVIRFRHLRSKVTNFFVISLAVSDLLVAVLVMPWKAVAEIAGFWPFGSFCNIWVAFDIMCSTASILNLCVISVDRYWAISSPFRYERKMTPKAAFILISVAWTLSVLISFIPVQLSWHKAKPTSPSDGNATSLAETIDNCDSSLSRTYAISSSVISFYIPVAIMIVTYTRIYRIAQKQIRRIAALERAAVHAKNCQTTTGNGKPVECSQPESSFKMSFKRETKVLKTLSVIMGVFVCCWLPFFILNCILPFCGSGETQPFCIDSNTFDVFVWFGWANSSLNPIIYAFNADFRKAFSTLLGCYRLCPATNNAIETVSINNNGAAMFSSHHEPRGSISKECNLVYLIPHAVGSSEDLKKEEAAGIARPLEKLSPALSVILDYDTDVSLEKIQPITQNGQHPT
# Chain of 5-hydroxytryptamine receptor 2A (P28223 whole entry): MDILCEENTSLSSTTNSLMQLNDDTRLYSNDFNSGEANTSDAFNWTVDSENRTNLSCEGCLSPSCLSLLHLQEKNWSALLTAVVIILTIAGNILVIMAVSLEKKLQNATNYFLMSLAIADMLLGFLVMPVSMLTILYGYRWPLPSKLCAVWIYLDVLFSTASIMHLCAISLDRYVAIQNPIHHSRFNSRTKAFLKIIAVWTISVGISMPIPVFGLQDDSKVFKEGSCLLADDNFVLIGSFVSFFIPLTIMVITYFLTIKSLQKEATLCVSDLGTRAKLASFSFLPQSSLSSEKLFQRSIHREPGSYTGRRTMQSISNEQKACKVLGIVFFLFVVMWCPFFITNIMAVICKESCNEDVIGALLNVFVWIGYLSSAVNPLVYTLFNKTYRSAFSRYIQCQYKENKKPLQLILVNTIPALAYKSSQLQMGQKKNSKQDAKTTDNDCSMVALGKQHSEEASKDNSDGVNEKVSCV
# Chain of Mu-type opioid receptor (P35372 whole entry): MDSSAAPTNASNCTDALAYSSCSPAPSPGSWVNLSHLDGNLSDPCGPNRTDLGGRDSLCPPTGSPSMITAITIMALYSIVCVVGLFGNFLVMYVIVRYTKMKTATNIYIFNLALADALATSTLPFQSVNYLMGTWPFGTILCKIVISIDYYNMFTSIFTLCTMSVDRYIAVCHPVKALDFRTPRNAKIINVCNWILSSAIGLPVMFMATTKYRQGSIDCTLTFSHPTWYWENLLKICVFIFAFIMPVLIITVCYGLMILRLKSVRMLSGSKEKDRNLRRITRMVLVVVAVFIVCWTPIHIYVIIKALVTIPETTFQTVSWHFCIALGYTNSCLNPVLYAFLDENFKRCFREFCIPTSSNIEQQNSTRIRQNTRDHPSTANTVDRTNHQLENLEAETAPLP
SMILES,AC50 [1] [µM],AC50 [2] [µM],AC50 [3] [µM],AC50 (D(1A) dopamine receptor) [µM],AC50 [4] [µM],AC50 [5] [µM],AC50 [6] [µM],AC50 (Mu-type opioid receptor) [µM],AC50 (Progesterone receptor) [µM]
O=C(O)CCCCCCCC(=O)O [AZELAIC ACID],> 10,> 10,> 30,> 30,> 10,> 30,> 10,> 30,> 10
COC(=O)[C@H]1[C@H]2C[C@@H]3c4[nH]c5cc(OC)ccc5c4CCN3C[C@H]2C[C@@H](OC(=O)/C=C/c2cc(OC)c(OC)c(OC)c2)[C@@H]1OC [RESCINNAMINE],> 10,> 10,> 30,> 30,> 10,> 30,> 10,> 30,> 10
Cc1cc(O)c(C(=O)N[C@@H](C(=O)N[C@@H]2C(=O)N3C(C(=O)O)=C(CSc4nnnn4C)CS[C@H]23)c2ccc(O)cc2)cn1 [CEFPIRAMIDE],> 30,> 30,> 30,> 30,> 30,> 30,> 30,> 30,> 30
C[C@H](N)[C@H](O)c1cccc(O)c1 [METARAMINOL],> 10,> 10,> 30,> 30,> 10,> 30,> 10,> 30,> 10
CCC1(CC)C(=O)NCC(C)C1=O (configuration not stated) [METHYPRYLON],> 30,> 30,> 30,> 30,> 30,> 30,> 30,> 30,> 30
CC(C)(C)C(=O)Oc1ccc(S(=O)(=O)Nc2ccccc2C(=O)NCC(=O)O)cc1,> 30,> 30,> 30,> 30,> 30,> 30,> 30,> 30,> 30
CC(C(=O)O)c1ccc(N2Cc3ccccc3C2=O)cc1 (configuration not stated) [INDOPROFEN],> 30,> 30,> 30,0.51,> 30,> 30,> 30,> 30,16.8
NCC(=O)CCC(=O)O [AMINOLEVULINIC ACID],> 30,> 30,> 30,> 30,> 30,> 30,> 30,> 30,> 30
CC(C)OC(=O)CCC/C=C\C[C@@H]1[C@@H](CC[C@@H](O)CCc2ccccc2)[C@H](O)C[C@@H]1O [LATANOPROST],> 30,> 30,> 30,> 30,> 30,> 30,> 30,> 30,> 30
COC(=O)C1=C(C)NC(C)=C(C(=O)OC(C)(C)CN(C)CCC(c2ccccc2)c2ccccc2)C1c1cccc([N+](=O)[O-])c1 (configuration not stated) [LERCANIDIPINE],> 30,> 30,> 30,> 30,> 30,> 30,> 30,> 30,> 30
O=C(O)CCCCCCNC1c2ccccc2CCc2ccccc21 [AMINEPTINE],> 30,> 30,> 30,> 30,> 30,0.17,> 30,> 30,> 30
O=C(O)/C=C/c1ccc(Cn2ccnc2)cc1 [OZAGREL],> 30,> 30,> 30,> 30,> 30,> 30,> 30,> 30,> 30
CC(C)C(=O)c1c(C(C)C)nn2ccccc12 [IBUDILAST],> 30,> 30,> 30,> 30,> 30,> 30,> 30,> 30,> 30
